Source: patent US8476248B2, “Process for the preparation of a water-soluble complex having resveratrol compounds; products comprising said complex; and uses thereof” (Uniao Brasileira de Educacao e Assistencia—Mantenedora da …, priority 2007, dated 2013)
Converted amounts (≈) assume the structure as drawn.

Legend:
physchem = format: physicochemical
Procedure: Ten mg, 100 mg, 500 mg, 1000 mg and 2000 mg of β-CD/Res complex were put in 100 mL volumetric flasks and water was added until completing their volume. The solutions stayed at ultrasound for 60 minutes. Then samples were centrifuged and filtered in a 0.45 μm pore diameter cellulose acetate membrane. Twenty μL portions of the samples were diluted 2000 times and their absorbances were measured by a UV-VIS spectrophotometer (FIG. 2). It was noticed that system saturation happens from 1000 mg of β-CD/Res (FIG. 3). The concentration of trans-resveratrol in 1000 mg and 2000 mg β-CD/Res sample concentrations was determined by High-Performance Liquid Chromatography (HPLC). For quantification, an external calibration curve was used, with trans-resveratrol concentrations ranging from 0.10 a 200.0 mg.L^−1. HPLC was carried out in isocratic elution (flow of 1.0 mL min^−1), with an aqueous solution of 25% acetonitrile, pH 3.0, adjusted with H3PO4. The chromatograph was equipped with UV-VIS detector and a C18 column, 5 μm 250×4.6 mm. Sample portions were diluted 1000 times with eluent, and 20 μL were injected and detected in 306 nm. The concentrations of trans-resveratrol of the 1000 mg sample of β-CD/Res complex were 3010±62 mg.L^−1 and of the 2000 mg sample of βCD/Res complex were 2960.5±53 mg.L^−1. […] All analyses were carried out in quintuplicate.

[1] = background statement; cited from earlier work

**Q.** For Oc1ccc(C=Cc2cc(O)cc(O)c2)cc1 [trans-resveratrol, 3,5,4′-trihydroxystilbene], which Solubility (physchem; 60 min) is on record?
**A.** 27.5 µg/mL (≈ 120 µM)

**Q.** And the solubility at 60 min (physchem; water, thermodynamic from solid)?
**A.** 27.5 ± 0.45 µg/mL (≈ 120 µM)

**Q.** What about the water solubility [1] of the same molecule?
**A.** less than 0.03 g/L
